According to paper PMC10436263 (2023):

Assays:
Assay in all cases: X-ray crystallography
[1] = tested on: d(5′-CGCGAATTCGCG-3′)2 (AATT) (DNA, duplex) CGCGAATTCGCG
[2] = tested on: d(5′-CGCAAATTTGCG-3′)2 (AAATTT, A3T3) (DNA, duplex) CGCAAATTTGCG; conditions: crystallization details in Table S1 (not seen); 1.54 Å
[3] = tested on: d(5′-CGCGATATCGCG-3′)2 (ATAT) (DNA, duplex) CGCGATATCGCG; conditions: crystallization details in Table S1 (not seen); 1.63 Å
[4] = tested on: d(5′-CGCAAAAAAGCG-3′/5′-CGCTTTTTTGCG-3′) (A6) (DNA, duplex) CGCAAAAAAGCG/CGCTTTTTTGCG; conditions: crystallization details in Table S1 (not seen); two orientations (8F1S, 8F1V); 2.1 Å
[5] = tested on: d(5′-CGCGAAAACGCG-3′/5′-CGCGTTTTCGCG-3′) (A4) (DNA, duplex) CGCGAAAACGCG/CGCGTTTTCGCG; conditions: crystallization details in Table S1 (not seen); 1.55 Å
[6] = tested on: d(5′-GCTGGATATATCCAGC-3′)2 (ATATAT) (DNA, duplex) GCTGGATATATCCAGC; conditions: 600 mM CaCl2; 10 mM HEPES pH 8.6, 40% PEG200 (well); 1.50 Å

Measured: binding

N=C(N)c1ccc(-c2ccc3cc(-c4ccc(C(=N)N)cc4)[nH]c3c2)cc1
yes: [1]; crystallization details in Table S1 (not seen)

N=C(N)c1ccc(-c2ccc3nc(-c4ccc(C(=N)N)cc4)[nH]c3c2)cc1
yes: [1]; 20 mM MgCl2, 80 mM NaCl, 12 mM KCl, 40 mM sodium cacodylate pH 6.0, 12 mM spermine, 10% MPD, two orientations (8EC1 I, 8ED6 II) | [2] | [3] | [4] | [5] | [6]
